According to US20060216238A1, “Compositions and methods for targeting or imaging a tissue in a vertebrate subject” (priority 2005, published 2006):

Columns and labels:
[1] = Stability of CPMV particles in simulated gastric conditions (SGF, SIF); type: in vitro ADME
Experimental: (§1) Stability of CPMV particles in simulated gastric conditions. Simulated gastric fluid (SGF) and simulated intestinal fluid (SIF) were prepared according to Takagi et al. Takagi et al., Biol. Pharm. Bull 26:969-973, 2003. Briefly, pepsin (3.8 mg; Sigma) was dissolved into 5 ml of gastric control fluid (2 mg/ml NaCl, pH 2.0). SIF was prepared by dissolving pancreatin, (10 mg/ml; Sigma) in intestinal control fluid (0.05 M […], pH 6.8). Both solutions were used within the same day. SGF (400 μl) was first incubated at 37° C. for 2 minutes before addition of CPMV (200 μg), giving a ratio of 10 U of pepsin activity/μg of CPMV. The tube contents were mixed by mild vortexing and the tube was immediately placed in a 37° C. water bath for time points ranging from 0-60 minutes, followed by neutralization with 70 μl of 200 mM sodium bicarbonate solution. Similarly, SIF was incubated at 37° C. for 2 minutes before addition of CPMV (200 μg) and the tube contents were placed in a 37° C. water bath for time points up to 120 minutes. Aliquots of virus exposed to SGF or SIF were mixed with 5 μl of NuPAGE 4× LDS-sample buffer, run on 4-12% SDS-PAGE gels, and stained with Simply Blue Safe Stain (Invitrogen). […]

cowpea plants [2] = assay: Infectivity of SGF- or SIF-treated CPMV on cowpea plants; set-up: species or system Vigna unguiculata; conditions: SGF 60 minutes or SIF 120 minutes, day 14 post-inoculation
Experimental: as §1

cowpea plants [3] = assay: Recovery of virus particles from mouse tissues, infectivity to cowpea; set-up: species or system Vigna unguiculata
Experimental: Recovery of virus particles from mouse tissues. Four mice were orally inoculated with 150 μg/mouse of CPMV and 24 hours later, the mice were euthanized and the liver, spleen, and kidney tissues were extracted and pooled. Following homogenization of pooled tissue samples in PBS, the homogenates were centrifuged at 10,000 g for 10 minutes at 4° C., and the cleared tissue supernatants were removed to flat-bottom 50-ml centrifuge tubes, each containing a magnetic flea. Polyethylene glycol 8000 was added to each supernatant to a final concentration of 8% and the mixture was stirred for 30 minutes at 4° C. to precipitate any virus present. The resulting cloudy mixture was centrifuged at 6,000 rpm in a Sorvall RC5C centrifuge for 15 minutes and the pellet was resuspended in 50-500 μl of 0.1 M phosphate buffer (pH 7.0), depending on pellet size. For each tissue homogenate a 7-day-old cowpea plant was dusted with carborundum and the resuspended pellet from each tissue was rubbed onto a single primary leaf. Five to seven days later, the primary and secondary leaves were harvested and a circle of tissue weighing 70 mg was excised from each leaf. RNA was extracted using a Qiagen RNeasy Plant Mini Kit (Qiagen Research, Maryland, USA) and RT-PCR was conducted as described above. PCR products were electrophoresed on a 2% Seakem LE agarose gel. The PCR products were purified from the gel using a PCR purification kit (Qiagen) and sequenced (Retrogen) to confirm that they were CPMV specific. Southern hybridization of the products with a CPMV-specific probe was also performed using ^32P end-labeled oligonucleotides (Amersham Biosciences). PCR products were transfered to Hybond-N+ membrane (Amersham Biosciences) using standard techniques. Hybridization conditions were 3 hours at 55° C. and wash conditions were in 6×SSC/0.5% SDS and were performed twice for five minutes at room temperature and twice for 5 minutes at 50° C.

LCMV = conditions: mouse, in vivo
KDR receptor (VEGFR2) = KDR receptor (VEGFR2) (Homo sapiens, UniProt P35968); assay: Binding assay using ELISA
Flt-1 receptor (VEGFR1) = Flt-1 receptor (VEGFR1) (Homo sapiens, UniProt P17948); assay: Binding and competition assays using ELISA
[4] = target: folate receptor (FR) on KB and HeLa cells (Homo sapiens, UniProt P15328); conditions: 4° C., both cell lines
[5] = 1 g infected leaves, day 1 post ingestion

Chain of Flt-1 receptor (VEGFR1) (P17948 27-1338): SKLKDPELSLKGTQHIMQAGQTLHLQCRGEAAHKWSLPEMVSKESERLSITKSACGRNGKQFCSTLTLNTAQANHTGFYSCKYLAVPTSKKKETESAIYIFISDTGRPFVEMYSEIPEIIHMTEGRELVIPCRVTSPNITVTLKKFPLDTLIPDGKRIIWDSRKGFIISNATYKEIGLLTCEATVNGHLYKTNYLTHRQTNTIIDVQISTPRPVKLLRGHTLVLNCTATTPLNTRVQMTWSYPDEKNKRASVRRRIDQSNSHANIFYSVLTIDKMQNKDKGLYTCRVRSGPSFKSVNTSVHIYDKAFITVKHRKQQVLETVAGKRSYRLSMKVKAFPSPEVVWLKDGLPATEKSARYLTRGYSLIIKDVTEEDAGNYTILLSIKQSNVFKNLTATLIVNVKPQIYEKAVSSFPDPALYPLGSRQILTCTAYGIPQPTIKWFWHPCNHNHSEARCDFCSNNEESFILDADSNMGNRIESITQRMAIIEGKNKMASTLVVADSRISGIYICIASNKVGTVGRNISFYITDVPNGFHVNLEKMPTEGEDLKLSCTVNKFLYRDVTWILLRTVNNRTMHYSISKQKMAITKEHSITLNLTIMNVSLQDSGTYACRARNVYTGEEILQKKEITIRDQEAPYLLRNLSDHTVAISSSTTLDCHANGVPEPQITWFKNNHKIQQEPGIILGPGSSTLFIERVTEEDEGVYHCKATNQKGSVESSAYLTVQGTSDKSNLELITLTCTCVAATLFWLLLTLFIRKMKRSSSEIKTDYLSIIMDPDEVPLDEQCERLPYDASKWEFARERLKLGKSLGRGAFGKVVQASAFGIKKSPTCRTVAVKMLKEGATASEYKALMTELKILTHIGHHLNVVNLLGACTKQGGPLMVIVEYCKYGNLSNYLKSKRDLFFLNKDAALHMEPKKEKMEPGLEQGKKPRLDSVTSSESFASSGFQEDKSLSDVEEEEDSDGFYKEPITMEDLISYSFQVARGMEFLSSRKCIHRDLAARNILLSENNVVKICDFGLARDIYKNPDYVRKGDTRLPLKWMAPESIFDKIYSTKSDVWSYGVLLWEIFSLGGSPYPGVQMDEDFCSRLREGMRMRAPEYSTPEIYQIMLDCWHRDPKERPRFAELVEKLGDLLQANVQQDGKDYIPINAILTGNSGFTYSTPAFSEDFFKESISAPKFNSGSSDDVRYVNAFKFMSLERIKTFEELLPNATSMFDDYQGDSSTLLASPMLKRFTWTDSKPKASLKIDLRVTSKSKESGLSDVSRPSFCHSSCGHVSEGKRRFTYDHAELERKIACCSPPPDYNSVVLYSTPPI
Chain of KDR receptor (VEGFR2) (P35968 20-1356): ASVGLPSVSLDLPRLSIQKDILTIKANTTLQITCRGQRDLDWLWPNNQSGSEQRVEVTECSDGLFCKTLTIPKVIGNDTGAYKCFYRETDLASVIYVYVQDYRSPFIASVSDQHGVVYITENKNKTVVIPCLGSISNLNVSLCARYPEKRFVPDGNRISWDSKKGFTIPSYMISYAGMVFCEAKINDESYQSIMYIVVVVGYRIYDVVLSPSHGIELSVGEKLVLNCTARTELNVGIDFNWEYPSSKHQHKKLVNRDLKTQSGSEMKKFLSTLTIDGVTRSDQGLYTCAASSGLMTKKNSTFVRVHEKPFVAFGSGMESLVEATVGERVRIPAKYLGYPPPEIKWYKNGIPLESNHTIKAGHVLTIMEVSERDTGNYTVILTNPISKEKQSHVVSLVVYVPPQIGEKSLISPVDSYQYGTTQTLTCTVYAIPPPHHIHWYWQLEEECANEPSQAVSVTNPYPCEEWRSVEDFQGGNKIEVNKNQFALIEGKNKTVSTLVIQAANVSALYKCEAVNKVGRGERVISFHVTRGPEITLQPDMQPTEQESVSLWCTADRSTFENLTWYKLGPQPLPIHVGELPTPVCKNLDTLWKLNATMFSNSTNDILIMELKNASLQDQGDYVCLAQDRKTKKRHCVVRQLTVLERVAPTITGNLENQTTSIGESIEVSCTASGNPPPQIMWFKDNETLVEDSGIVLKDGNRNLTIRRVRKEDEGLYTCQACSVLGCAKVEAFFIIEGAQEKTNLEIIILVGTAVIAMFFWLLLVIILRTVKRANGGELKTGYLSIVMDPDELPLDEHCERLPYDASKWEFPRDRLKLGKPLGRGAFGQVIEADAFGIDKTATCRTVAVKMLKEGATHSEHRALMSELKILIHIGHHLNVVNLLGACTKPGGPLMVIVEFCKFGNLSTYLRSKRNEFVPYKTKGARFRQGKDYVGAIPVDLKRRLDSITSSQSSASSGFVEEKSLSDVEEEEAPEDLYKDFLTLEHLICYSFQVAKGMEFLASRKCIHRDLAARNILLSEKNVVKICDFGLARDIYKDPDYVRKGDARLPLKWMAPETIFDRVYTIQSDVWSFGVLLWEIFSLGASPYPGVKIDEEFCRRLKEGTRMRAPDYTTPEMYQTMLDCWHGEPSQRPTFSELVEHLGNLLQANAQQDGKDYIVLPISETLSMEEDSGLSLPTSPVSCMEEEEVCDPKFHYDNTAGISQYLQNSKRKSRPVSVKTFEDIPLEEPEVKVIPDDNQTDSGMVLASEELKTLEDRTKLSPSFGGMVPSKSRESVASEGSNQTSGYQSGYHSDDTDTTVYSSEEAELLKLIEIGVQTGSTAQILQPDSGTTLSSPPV
Chain of folate receptor (FR) on KB and HeLa cells (P15328 25-234): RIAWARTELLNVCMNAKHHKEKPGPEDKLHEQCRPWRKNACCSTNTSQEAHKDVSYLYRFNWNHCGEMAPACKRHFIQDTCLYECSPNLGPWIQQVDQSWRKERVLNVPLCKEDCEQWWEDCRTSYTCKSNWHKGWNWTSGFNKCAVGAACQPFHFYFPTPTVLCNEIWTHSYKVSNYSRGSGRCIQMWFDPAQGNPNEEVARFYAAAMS

Substance: cowpea mosaic virus [CPMV]
- integrity on Coomassie-stained gel after SGF ([1]; SGF, pepsin pH 2.0, 37° C., 0-60 minutes): remained intact
- integrity on Coomassie-stained gel after SIF ([1]; SIF, pancreatin pH 6.8, up to 120 minutes): remained intact
- infectivity on cowpea plants after SGF or SIF (cowpea plants [2]): infectivity similar to untreated CPMV
- symptoms on cowpea leaves from virus recovered from mouse liver and spleen (cowpea plants [3]; PEG-precipitated tissue homogenates): No symptoms were observed
- inoculated amount required for a PCR signal (cowpea plants [3]; control titration on cowpea): 1 ng
- inoculated amount required to observe symptoms (cowpea plants [3]; control titration on cowpea): 10 ng
- survival of lethal i.c. LCMV challenge (LCMV): one of six
- mice positive for CPMV RNA in kidney, duodenum, jejunum and brain [5]: 1 out of 3
- mice positive for CPMV RNA in spleen, liver, lungs, stomach, ileum and bone marrow [5]: 2 out of 3
- persistence of CPMV RNA in tissues (ingestion of infected leaves): did not persist in tissues past the first day
- binding to KDR receptor in ELISA (KDR receptor (VEGFR2)): did not show any detectable binding
- binding to Flt-1 receptor in ELISA (Flt-1 receptor (VEGFR1)): did not show any detectable binding
- non-specific binding to the cell surface [4]: significant non-specifig binding
